Measured values as given in patent publication US20240368122A1, “JAK2 INHIBITORS AND METHODS OF USE THEREOF” (RELAY THERAPEUTICS, INC., priority 2021, published 2024).
Like-named read-outs stand apart in the source and are kept apart here.

Tests used:
[1] = biological target: T1, JAK2 JH2 WT (V536-D812) [W659A, W777A, F794H solubilizing mutations] (Homo sapiens, UniProt O60674, F794H/W659A/W777A); assay: Surface Plasmon Resonance (SPR) binding assay, JAK2 JH2 domain
T1 construct: **JAK2 JH2 WT (V536-D812) [W659A, W777A, F794H solubilizing mutations]; C-thrombin-avi-His6; thrombin cleavage site (C); His6 (C); purchased Biortus
T1 sequence (O60674 536-812 W659A/W777A/F794H): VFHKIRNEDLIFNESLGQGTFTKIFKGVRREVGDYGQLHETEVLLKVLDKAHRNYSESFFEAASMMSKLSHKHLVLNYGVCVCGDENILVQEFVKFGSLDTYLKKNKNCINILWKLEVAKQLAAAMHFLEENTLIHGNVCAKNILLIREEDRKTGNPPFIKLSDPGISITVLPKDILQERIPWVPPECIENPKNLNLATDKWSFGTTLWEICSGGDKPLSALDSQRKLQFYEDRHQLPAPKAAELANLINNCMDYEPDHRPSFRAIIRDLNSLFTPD
Outline: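 Kinetics came from 1:1 fits of single-cycle runs at 20 °C: four 3-fold dilutions from 5 uM for JH1 or 500 nM for JH2, 60 s association, and 300 s or 1200 s dissociation respectively. Protein was freshly captured per compound in the presence of 10 uM stabilizer compound, with running buffer of pH 7.5 HEPES/NaCl/glycerol/DTT plus 2% DMSO.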

[2] = test system: TF1 JAK2 V617F STAT3 reporter; assay: Cellular TF1 STAT3 assay (luciferase reporter), JAK2 V617F; type: cell-based; conditions: read-out: Cell PD-TF1 JAK2 V617F STAT3 (IC50)
Outline: (§1)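 TF1 erythroleukemia cells expressing V617F JAK2 with a STAT3 or STAT5 luciferase reporter were seeded at 10,000 cells/well onto compound (10-point, 1:3 dilutions; 10 mM top stock at 1000×) and incubated 18-20 h at 37 °C, 5% CO2. Luminescence was read after ONE-glo addition, 10 min at room temperature.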

[3] = test system: TF1 JAK2 V617F STAT5 reporter; assay: Cellular TF1 STAT5 assay (luciferase reporter), JAK2 V617F; type: cell-based; conditions: read-out: Cell PD TF1 V617F STAT5 (IC50)
Outline: as §1

[4] = Homo sapiens, TF-1, TF1 cells, JAK2 V617F

Row | SMILES | Kd [1] [nM] | IC50 [2, 4] [nM] | IC50 [3, 4] [nM] | Kd ([1]; SPR, JAK2 JH2 domain) [nM] | IC50 ([2]; TF1 JAK2 V617F) [nM] | IC50 ([3]; TF1 JAK2 V617F) [nM]
1 | CNC(=O)c1nnc(NC(=O)C2CC2)cc1Nc1cccc(-c2ccc(C(=O)N(C)Cc3cnc(C)s3)nc2)c1OC [Compound 211] | 0.01 to 10 | 5000 to 100000 | 500 to 5000 | – | – | –
2 | CNC(=O)c1nnc(NC(=O)C2CC2)cc1Nc1cccc(-c2ccc(C3CN(Cc4ccc5c(n4)CCC5)C3)nc2)c1OC [Compound 385] | 50 to 500 | 5000 to 100000 | 500 to 5000 | – | – | –
3 | CNC(=O)c1nnc(NC(=O)C2CC2)cc1Nc1cccc(-c2cnn(C3CN(Cc4cccc(C5COC5)n4)C3)c2)c1OC [Compound 343] | 0.01 to 10 | 50 to 500 | 50 to 500 | – | – | –
4 | CNC(=O)c1nnc(NC(=O)C2CC2)cc1Nc1cccc(-c2ncn(C3CN(Cc4ccccn4)C3)n2)c1OC [Compound 224] | 0.01 to 10 | 5000 to 100000 | 5000 to 100000 | – | – | –
5 | CNC(=O)c1nnc(NC(=O)OC2CC2)cc1Nc1cccc(-c2cnn(C3CN(Cc4cccc(C#N)n4)C3)c2)c1OC [Compound 364] | 0.01 to 10 | 50 to 500 | 50 to 500 | – | – | –
6 | CNC(=O)c1nnc(NC(=O)C2CC2)cc1Nc1cccc(-c2cnn(C3CN(Cc4cccc(C(=O)C(C)C)n4)C3)c2)c1OC [Compound 309] | 0.01 to 10 | 500 to 5000 | 50 to 500 | – | – | –
7 | CNC(=O)c1nnc(NC(=O)C2CC2)cc1Nc1cccc(-c2ccc(C(=O)N(C)Cc3nccs3)nc2)c1OC [Compound 58] | – | – | – | 0.01 to 10 | 500 to 5000 | 500 to 5000
8 | CNC(=O)c1nnc(NC(=O)C2CC2)cc1Nc1cccc(-c2cnn(C3CN(Cc4cccc(NS(C)(=O)=O)n4)C3)c2)c1OC [Compound 273] | 0.01 to 10 | 500 to 5000 | 500 to 5000 | – | – | –
9 | CNC(=O)c1nnc(NC(=O)C2CC2)cc1Nc1nccc(-c2ccc(C(=O)N(C)Cc3cc(C#N)ccn3)nc2)c1OC [Compound 240] | 0.01 to 10 | 50 to 500 | 500 to 5000 | – | – | –
10 | C=C(C)c1cccc(CN2CC(n3cc(-c4cccc(Nc5cc(NC(=O)C6CC6)nnc5C(=O)NC)c4OC)cn3)C2)n1 [Compound 367] | 0.01 to 10 | 50 to 500 | 50 to 500 | – | – | –
11 | CNC(=O)c1nnc(NC(=O)C2CC2)cc1Nc1cccc(-c2ccc(C(=O)N(C)Cc3cn(C)nc3C(F)(F)F)nn2)c1OC [Compound 75] | – | – | – | 0.01 to 10 | 500 to 5000 | 500 to 5000
12 | CNC(=O)c1nnc(NC(=O)C2CC2)cc1Nc1cccc(-c2cnn(C3CN(Cc4cccc(C)n4)C3)c2)c1OC [Compound 106] | – | – | – | 0.01 to 10 | 50 to 500 | 50 to 500
13 | [2H]C([2H])([2H])NC(=O)c1nnc(NC(=O)C2CC2)cc1Nc1cccc(-c2ccc(C(=O)N(C)Cc3ccn(C)n3)nc2)c1OC [Compound 79] | – | – | – | 0.01 to 10 | 50 to 500 | 500 to 5000
14 | COc1c(Nc2cc(NC(=O)C3CC3)nnc2-c2ncc[nH]2)cccc1-c1ccc(C(=O)N(C)Cc2cn(C)nc2C)nc1 [Compound 363] | 0.01 to 10 | 500 to 5000 | 50 to 500 | – | – | –
15 | CCS(=O)(=O)c1ccnc(CN(C)C(=O)c2ccc(-c3cccc(Nc4cc(NC(=O)C5CC5)nnc4C(=O)NC)c3OC)cn2)c1 [Compound 394] | 0.01 to 10 | 10 to 50 | 10 to 50 | – | – | –
16 | [2H]C([2H])([2H])NC(=O)c1nnc(NC(=O)C2CC2)cc1Nc1cccc(-c2ccc(C(=O)N(Cc3cc(C#N)ccn3)C([2H])([2H])[2H])nc2)c1OC [Compound 74] | – | – | – | 0.01 to 10 | 50 to 500 | 50 to 500
17 | CNC(=O)c1nnc(NC(=O)C2CC2)cc1Nc1cccc(-c2ccc(C(=O)N(C)Cc3ccns3)nc2)c1OC [Compound 59] | – | – | – | 0.01 to 10 | 500 to 5000 | 5000 to 100000
18 | CNC(=O)c1nnc(NC(=O)C2CC2)cc1Nc1cccc(-c2cnc(C(=O)N(C)Cc3cn(C)nc3C)c(F)c2)c1OC [Compound 172] | – | – | – | 0.01 to 10 | 50 to 500 | 50 to 500

Row | SMILES | Kd [1] [nM] | IC50 [2, 4] [nM] | IC50 [3, 4] [nM] | Kd ([1]; SPR, JAK2 JH2 domain) [nM] | IC50 ([2]; TF1 JAK2 V617F) [nM] | IC50 ([3]; TF1 JAK2 V617F) [nM]
19 | CNC(=O)c1nnc(NC(=O)C2CC2)cc1Nc1cccc(-c2ccc(C(=O)N(C)Cc3csc(C(C)C)n3)nc2)c1OC [Compound 199] | 0.01 to 10 | 50 to 500 | 50 to 500 | – | – | –
20 | CNC(=O)c1nnc(NC(=O)C2CC2)cc1Nc1cccc(-c2ccc(C(=O)N(C)Cc3cn(C)nc3C(C)C)nc2)c1OC [Compound 198] | 0.01 to 10 | 50 to 500 | 50 to 500 | – | – | –
21 | CNC(=O)c1nnc(NC(=O)C2CC2)cc1Nc1ccc(Cl)c(-c2ccc(C(=O)N(C)Cc3cc(C#N)ccn3)cc2)c1OC [Compound 217] | 0.01 to 10 | 500 to 5000 | 500 to 5000 | – | – | –
22 | CNC(=O)c1nnc(NC(=O)C2CC2)cc1Nc1cccc(-c2cnn(C3CN(Cc4cccc(C5(O)CC5)n4)C3)c2)c1OC [Compound 274] | 0.01 to 10 | 50 to 500 | 50 to 500 | – | – | –
23 | CNC(=O)c1nnc(NC(=O)C2CC2)cc1Nc1cccc(-c2cnn(C3CN(Cc4csc(C)n4)C3)c2)c1OC [Compound 126] | – | – | – | 0.01 to 10 | 50 to 500 | 50 to 500
24 | CNC(=O)c1nnc(NC(=O)C2CC2)cc1Nc1cccc(-c2ccc(C(=O)N(C)C(C)c3nc(C)no3)nc2)c1OC (stereo not drawn) [Compound 50] | – | – | – | 0.01 to 10 | 5000 to 100000 | 5000 to 100000
25 | CNC(=O)c1nnc(NC(=O)C2CC2)cc1Nc1ccc(C)c(-c2cn(C3CN(Cc4cccc(C#N)n4)C3)nn2)c1OC [Compound 268] | 0.01 to 10 | 500 to 5000 | 500 to 5000 | – | – | –
26 | CNC(=O)c1nnc(NC(=O)C2CC2)cc1Nc1cccc(-c2cc(C3CN(Cc4cnn(C)c4)C3)n(C)n2)c1OC [Compound 187] | – | – | – | 50 to 500 | 5000 to 100000 | 5000 to 100000
27 | CNC(=O)c1nnc(NC(=O)C2CC2)cc1Nc1cccc(-c2cnn([C@H]3C[C@H](Cc4cccc(C#N)n4)C3)c2)c1OC [Compound 349] | 0.01 to 10 | 500 to 5000 | 500 to 5000 | – | – | –
28 | CNC(=O)c1nnc(NC(=O)C2CC2)cc1Nc1cccc(-c2cnn(C3CN(Cc4cccc(F)c4)C3)c2)c1OC [Compound 91] | – | – | – | 0.01 to 10 | 500 to 5000 | 500 to 5000
29 | COc1c(Nc2cc(NC(=O)C3CC3)nn3cc(C)nc23)cccc1-c1ccc(C(=O)N(C)Cc2cn(C)nc2C)nc1 [Compound 231] | 0.01 to 10 | 500 to 5000 | 500 to 5000 | – | – | –
30 | CNC(=O)c1nnc(NC(=O)C2CC2)cc1Nc1cccc(-c2ccn(C3CN(Cc4cccc(C(F)F)n4)C3)n2)c1OC [Compound 331] | 0.01 to 10 | 500 to 5000 | 500 to 5000 | – | – | –
31 | CNC(=O)c1nnc(NC(=O)C2CC2)cc1Nc1cccc(-c2cnn(C3CN(Cc4cc(C)ccn4)C3)c2)c1OC [Compound 111] | – | – | – | 0.01 to 10 | 50 to 500 | 50 to 500
32 | COc1c(Nc2cc(NC(=O)C3CC3)nn3cc(C)nc23)ccc(C)c1-c1ccc(C(=O)N(C)Cc2cn(C)nc2C)nc1 [Compound 262] | 0.01 to 10 | 500 to 5000 | 5000 to 100000 | – | – | –
33 | CNC(=O)c1nnc(NC(=O)C2CC2)cc1Nc1cccc(-c2cnn(C3CN(C(C)c4ccccn4)C3)c2)c1OC (racemic) [Compound 127] | – | – | – | 0.01 to 10 | 500 to 5000 | 500 to 5000
34 | CNC(=O)c1nnc(NC(=O)C2CC2)cc1Nc1cccc(-c2cnn(C3CN(Cc4cccc(CO)n4)C3)c2)c1OC [Compound 228] | 0.01 to 10 | 50 to 500 | 50 to 500 | – | – | –
35 | CNC(=O)c1nnc(NC(=O)C2CC2)cc1Nc1cccc(-c2ccc(C(=O)N(C)Cc3cscn3)nc2)c1OC [Compound 57] | – | – | – | 0.01 to 10 | 50 to 500 | 50 to 500
36 | CNC(=O)c1nnc(NC(=O)C2CC2)cc1Nc1cccc(-c2cnn(C3CN(Cc4cccc(C(=O)N(C)CCN)n4)C3)c2)c1OC [Compound 384] | 0.01 to 10 | 500 to 5000 | 500 to 5000 | – | – | –
